Assay results as given in the supplement of paper PMC11451515.

Tested on: P12-Ichikawa
Test: cell viability relative to DMSO control; higher = less cytotoxic
Conditions: 48 h
In short: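 Leukemia cells (NOMO1 or SEM, 500 cells/well; P12-Ichikawa, 1000 cells/well) were seeded in 5 μl in 1536-well plates after at least four passages of adaptation to each medium. They received library compounds in DMSO by pin dosing, 11 threefold points from 47 μM to 0.79 nM. Luminescence with CellTiter-Glo One was read after 48 h at 37°C. Viability is stated per plate relative to DMSO wells, with cell-free wells as background.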

[1] = HPLM + 10% dialyzed FBS, 0.000781 µM
[2] = HPLM + 10% dialyzed FBS, 0.00234 µM
[3] = HPLM + 10% dialyzed FBS, 0.00702 µM
[4] = HPLM + 10% dialyzed FBS, 0.0211 µM
[5] = HPLM + 10% dialyzed FBS, 0.0632 µM
[6] = HPLM + 10% dialyzed FBS, 0.19 µM
[7] = HPLM + 10% dialyzed FBS, 0.569 µM
[8] = HPLM + 10% dialyzed FBS, 1.71 µM
[9] = HPLM + 10% dialyzed FBS, 5.12 µM
[10] = HPLM + 10% dialyzed FBS, 15.4 µM
[11] = HPLM + 10% dialyzed FBS, 46.1 µM
[12] = RPMI 5 mM glucose + 10% FBS, 0.000781 µM
[13] = RPMI 5 mM glucose + 10% FBS, 0.00234 µM
[14] = RPMI 5 mM glucose + 10% FBS, 0.00702 µM
[15] = RPMI 5 mM glucose + 10% FBS, 0.0211 µM
[16] = RPMI 5 mM glucose + 10% FBS, 0.0632 µM
[17] = RPMI 5 mM glucose + 10% FBS, 0.19 µM
[18] = RPMI 5 mM glucose + 10% FBS, 0.569 µM
[19] = RPMI 5 mM glucose + 10% FBS, 1.71 µM
[20] = RPMI 5 mM glucose + 10% FBS, 5.12 µM
[21] = RPMI 5 mM glucose + 10% FBS, 15.4 µM
[22] = RPMI 5 mM glucose + 10% FBS, 46.1 µM
[23] = RPMI 5 mM glucose + 10% dialyzed FBS, 0.000781 µM
[24] = RPMI 5 mM glucose + 10% dialyzed FBS, 0.00234 µM
[25] = RPMI 5 mM glucose + 10% dialyzed FBS, 0.00702 µM
[26] = RPMI 5 mM glucose + 10% dialyzed FBS, 0.0211 µM
[27] = RPMI 5 mM glucose + 10% dialyzed FBS, 0.0632 µM
[28] = RPMI 5 mM glucose + 10% dialyzed FBS, 0.19 µM
[29] = RPMI 5 mM glucose + 10% dialyzed FBS, 0.569 µM
[30] = RPMI 5 mM glucose + 10% dialyzed FBS, 1.71 µM
[31] = RPMI 5 mM glucose + 10% dialyzed FBS, 5.12 µM
[32] = RPMI 5 mM glucose + 10% dialyzed FBS, 15.4 µM
[33] = RPMI 5 mM glucose + 10% dialyzed FBS, 46.1 µM

| SMILES | cell viability [1] | cell viability [2] | cell viability [3] | cell viability [4] | cell viability [5] | cell viability [6] | cell viability [7] | cell viability [8] | cell viability [9] | cell viability [10] | cell viability [11] | cell viability [12] | cell viability [13] | cell viability [14] | cell viability [15] | cell viability [16] | cell viability [17] | cell viability [18] | cell viability [19] | cell viability [20] | cell viability [21] | cell viability [22] | cell viability [23] | cell viability [24] | cell viability [25] | cell viability [26] | cell viability [27] | cell viability [28] | cell viability [29] | cell viability [30] | cell viability [31] | cell viability [32] | cell viability [33] |
| --- | --- | --- | --- | --- | --- | --- | --- | --- | --- | --- | --- | --- | --- | --- | --- | --- | --- | --- | --- | --- | --- | --- | --- | --- | --- | --- | --- | --- | --- | --- | --- | --- | --- |
| CC1=C(C)C2=C(S1)[N]3C(=NN=C3[C@H](CC(=O)OC(C)(C)C)/N=C2/C4=CC=C(Cl)C=C4)C | 98.4% | 98.2% | 97.1% | 100% | 92.7% | 79.5% | 39.4% | 57.7% | 35.1% | 15.4% | 6.39% | 97.6% | 90.6% | 91.5% | 97.6% | 85.8% | 81.1% | 43% | 52.4% | 37.1% | 22.4% | 13.6% | 92.2% | 92.2% | 87.8% | 95% | 90.6% | 78.9% | 39.9% | 50.4% | 40.1% | 17.3% | 7.9% |
| C[C@@H]1CN(CC(=O)N2CC(C)(C)c3ncc(Cc4ccc(F)cc4)cc32)[C@@H](CN2CCOC[C@H]2C)CN1 | 102% | 113% | 81.8% | 113% | 118% | 121% | 111% | 112% | 115% | 110% | 91.8% | 102% | 106% | 69.7% | 118% | 118% | 132% | 114% | 128% | 125% | 116% | 98.2% | 110% | 119% | 88.8% | 125% | 126% | 135% | 128% | 122% | 121% | 118% | 90.8% |
| Cc1nc2c([nH]1)-c1ccccc1N(C(=O)c1ccc(NC(=O)c3ccccc3-c3ccccc3)cc1)CC2 | 114% | 120% | 122% | 117% | 127% | 126% | 124% | 128% | 121% | 128% | 128% |  |  |  |  |  |  |  |  |  |  |  |  |  |  |  |  |  |  |  |  |  |  |
| COc1ccc([C@@H]2CNC(=O)C2)cc1OC1CCCC1 | 103% | 107% | 104% | 110% | 109% | 111% | 113% | 109% | 117% | 114% | 109% | 101% | 104% | 110% | 99.8% | 97.1% | 113% | 117% | 105% | 117% | 118% | 108% | 99.1% | 106% | 113% | 107% | 118% | 110% | 114% | 103% | 113% | 111% | 118% |
| Cn1cc(-c2ccc3ncc(Cc4ccc5ncccc5c4)n3n2)cn1 | 96.8% | 105% | 107% | 107% | 105% | 104% | 113% | 107% | 105% | 107% | 100% | 102% | 108% | 100% | 103% | 102% | 109% | 111% | 107% | 106% | 104% | 102% | 103% | 119% | 112% | 109% | 110% | 104% | 115% | 114% | 102% | 98.7% | 110% |
| CCOP(=O)(OCC)C(C)NC(=O)N(CCCl)N=O (stereo unspecified) | 122% | 116% | 132% | 119% | 124% | 130% | 123% | 123% | 128% | 130% | 141% |  |  |  |  |  |  |  |  |  |  |  |  |  |  |  |  |  |  |  |  |  |  |
| Nc1ccc([S+](=O)([O-])Nc2ccccn2)cc1 | 117% | 116% | 115% | 123% | 117% | 117% | 130% | 119% | 115% | 120% | 125% | 105% | 105% | 113% | 117% | 118% | 112% | 121% | 116% | 127% | 123% | 127% | 113% | 117% | 116% | 113% | 119% | 115% | 125% | 119% | 124% | 131% | 127% |
| COC(=O)N[C@H](C(=O)N[C@@H](Cc1ccccc1)[C@@H](O)CN(Cc1ccc(-c2ccccn2)cc1)NC(=O)[C@@H](NC(=O)OC)C(C)(C)C)C(C)(C)C | 118% | 107% | 102% | 107% | 124% | 118% | 102% | 105% | 107% | 101% | 25.4% | 102% | 117% | 116% | 107% | 112% | 117% | 114% | 116% | 122% | 113% | 108% | 98.9% | 111% | 112% | 113% | 113% | 107% | 103% | 99.2% | 94.7% | 98.2% | 86.4% |
| O=C1c2cccc(O)c2C(=O)c2c(O)cc(CO)cc21 | 97.1% | 100% | 99.9% | 98.1% | 92.7% | 91.2% | 95.2% | 92.8% | 91.9% | 90.7% | 93.4% | 89.6% | 90.1% | 93.7% | 98% | 92.3% | 97% | 88.2% | 97.1% | 92.1% | 96.5% | 104% | 91.1% | 92.2% | 91% | 93.4% | 91.8% | 91.5% | 89% | 86.7% | 88% | 88.3% | 91.3% |
| Cc1ccccc1C(C(=O)NC1CCCCC1)N(C(=O)CNc1ccc(C#N)cc1)c1cccc(F)c1 (stereo unspecified) | 111% | 113% | 107% | 105% | 114% | 103% | 106% | 104% | 102% | 104% | 99.2% | 73.9% | 104% | 110% | 112% | 112% | 102% | 102% | 102% | 99% | 95.6% | 94.6% | 64.4% | 110% | 110% | 112% | 104% | 92.7% | 103% | 92.5% | 91.3% | 98.8% | 98.6% |
| CN1C(=O)COc2c(C(=O)NC3CN4CCC3CC4)cc(Cl)cc21 (stereo unspecified) | 87.1% | 107% | 104% | 105% | 109% | 109% | 99.6% | 96.9% | 94.2% | 107% | 111% | 95% | 115% | 110% | 119% | 132% | 73% | 66.4% | 86.1% | 95.7% | 95.6% | 121% | 95.8% | 98.4% | 101% | 97.8% | 101% | 95.4% | 98.9% | 96.9% | 92.6% | 89.2% | 99% |
| Cc1cc(SCc2sc(-c3ccc(C(F)(F)F)c(F)c3)nc2C)ccc1OCC(=O)O | 106% | 104% | 100% | 92.4% | 105% | 106% | 106% | 101% | 100% | 86.2% | 91.5% | 98.4% | 102% | 93.1% | 81.6% | 97.3% | 99.7% | 94.4% | 93.4% | 96.7% | 89.5% | 87.9% | 93.3% | 94.4% | 96.7% | 92.8% | 89.5% | 97% | 93.6% | 92.8% | 98% | 80.9% | 76.3% |
| CN1[C@@H]2CC(O)C[C@H]1[C@@H]1O[C@@H]12 (stereo partly specified) | 122% | 121% | 124% | 105% | 119% | 115% | 119% | 120% | 114% | 119% | 6.79% | 122% | 113% | 123% | 119% | 135% | 121% | 119% | 125% | 107% | 104% | 18.3% | 118% | 119% | 127% | 112% | 125% | 120% | 120% | 113% | 106% | 120% | 4.64% |
| CCC(CC)[C@H](NC(C)=O)[C@@H]1[C@H](O)[C@@H](C(=O)O)C[C@H]1NC(=N)N | 84.6% | 86.3% | 86.2% | 95.4% | 102% | 84.1% | 95.6% | 89% | 100% | 91.4% | 101% | 85.2% | 79.7% | 81.5% | 86% | 84.2% | 75.9% | 84.8% | 85.1% | 87.4% | 78.1% | 86.9% | 75.7% | 82.1% | 81.7% | 86.4% | 83% | 80.5% | 77.4% | 81.8% | 76.5% | 82.6% | 86.8% |
| CC1OC(OC/2=C(/OC3=C(C(=CC(=C3)O)O)C2=O)C4=CC=C(O)C=C4)C(O)C(OC(C)=O)C1OC(C)=O (stereo unspecified) | 112% | 118% | 111% | 116% | 113% | 108% | 108% | 107% | 101% | 103% | 100% | 108% | 114% | 115% | 112% | 120% | 117% | 103% | 108% | 105% | 96.4% | 103% | 114% | 119% | 117% | 115% | 116% | 114% | 109% | 114% | 111% | 103% | 104% |
